Where two headings read alike, the source gives them in different places. Values belong to the compound of their own block, whether it stands above or below them.
Tests used:
caspase 1 = molecular target: T1, caspase 1 (Homo sapiens, UniProt P29466); experiment: Enzyme inhibition assay, caspase 1 (fluorogenic Ac-YVAD-AMC); type: biochemical
T1 construct: purchased BIOMOL Research Laboratories (Plymouth Meeting, Pa.)
T1 sequence (P29466 120-297 limits assumed): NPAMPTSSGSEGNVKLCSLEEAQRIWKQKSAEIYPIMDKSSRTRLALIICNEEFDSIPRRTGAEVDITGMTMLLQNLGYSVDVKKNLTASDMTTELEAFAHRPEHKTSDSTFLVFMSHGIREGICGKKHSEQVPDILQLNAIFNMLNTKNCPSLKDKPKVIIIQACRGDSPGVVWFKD
T1 sequence (P29466 317-404 limits assumed): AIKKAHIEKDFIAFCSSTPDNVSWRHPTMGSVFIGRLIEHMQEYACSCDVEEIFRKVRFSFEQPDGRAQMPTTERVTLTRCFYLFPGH

caspase-3 [1] = molecular target: T2, caspase-3 (Homo sapiens, UniProt P42574); experiment: Enzyme inhibition assay, caspase 3 (fluorogenic Ac-DEVD-AMC); type: biochemical
T2 construct: purchased Sigma-Aldrich (St. Louis, Mo.)
T2 sequence (P42574 29-175 limits assumed): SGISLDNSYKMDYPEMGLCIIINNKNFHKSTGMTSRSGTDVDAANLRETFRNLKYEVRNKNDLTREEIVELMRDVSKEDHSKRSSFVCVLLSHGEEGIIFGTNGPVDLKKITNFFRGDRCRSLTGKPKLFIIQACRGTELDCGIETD
T2 sequence (P42574 176-277 limits assumed): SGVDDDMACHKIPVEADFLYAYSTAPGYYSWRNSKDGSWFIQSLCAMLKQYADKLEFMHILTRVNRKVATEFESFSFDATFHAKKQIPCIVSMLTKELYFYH

caspase 6 = molecular target: T3, caspase 6 (Homo sapiens, UniProt P55212); experiment: Enzyme inhibition assay, caspase 6 (fluorogenic Ac-VEID-AMC); type: biochemical
T3 construct: purchased Sigma-Aldrich (St. Louis, Mo.)
T3 sequence (P55212 24-179 limits assumed): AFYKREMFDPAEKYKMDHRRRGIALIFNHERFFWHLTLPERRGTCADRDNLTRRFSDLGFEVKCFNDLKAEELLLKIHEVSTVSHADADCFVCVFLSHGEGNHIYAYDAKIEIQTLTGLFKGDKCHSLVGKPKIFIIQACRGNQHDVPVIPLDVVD
T3 sequence (P55212 194-293 limits assumed): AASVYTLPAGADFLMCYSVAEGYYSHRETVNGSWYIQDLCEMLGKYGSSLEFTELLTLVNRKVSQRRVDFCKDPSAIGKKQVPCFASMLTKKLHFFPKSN

caspase 7 = molecular target: T4, caspase 7 (Homo sapiens, UniProt P55210); experiment: Enzyme inhibition assay, caspase 7 (fluorogenic Ac-DEVD-AMC); type: biochemical
T4 construct: purchased Sigma-Aldrich (St. Louis, Mo.)
T4 sequence (P55210 24-198 limits assumed): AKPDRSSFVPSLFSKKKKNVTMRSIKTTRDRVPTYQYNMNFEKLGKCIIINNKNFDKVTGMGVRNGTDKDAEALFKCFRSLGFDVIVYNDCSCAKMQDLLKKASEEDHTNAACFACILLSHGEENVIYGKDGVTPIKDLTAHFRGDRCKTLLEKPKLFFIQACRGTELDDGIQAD
T4 sequence (P55210 207-303 limits assumed): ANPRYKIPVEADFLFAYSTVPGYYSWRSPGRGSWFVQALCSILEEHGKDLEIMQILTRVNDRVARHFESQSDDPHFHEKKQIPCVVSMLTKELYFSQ

caspase 8 = molecular target: T5, caspase 8 (Homo sapiens, UniProt Q14790); experiment: Enzyme inhibition assay, caspase 8 (fluorogenic Ac-IETD-AMC); type: biochemical
T5 construct: purchased Sigma-Aldrich (St. Louis, Mo.)

caspase-3 [2] = molecular target: T2, caspase-3; experiment: Reversibility assay (gel filtration); type: biochemical
caspase-3 [3] = molecular target: T2, caspase-3; experiment: Enzyme kinetic studies versus Ac-DEVD-AMC; type: biochemical
Procedure: Enzyme Kinetic Studies. The inhibition profile for compound 21c was determined for caspase-3 in the assay buffer. The concentration of Ac-DEVD-AMC was varied from 6.25 to 100 μM, and the concentration of 21c was varied from 0 to 20 nM. The kinetic parameters of 21c were obtained by fitting initial-rate data to
[formula] where v is the observed velocity, S is the substrate concentration, Vm is the velocity at saturating substrate, Km is the Michaelis constant of the substrate, I is the inhibitor concentration, and Ki is the dissociation constant of the inhibitor from the E·I complex. The data were analyzed using GraFit 4.0 (Erithacus Software, Staines, U.K.)
Kinetic studies were also conducted in order to determine the mechanism of inhibition of caspase-3 activity by compound 21c.

[4] = Table 5, read-out: IC50 (nM) caspase-3
[5] = Table 5, read-out: IC50 (nM) caspase-7
[6] = Table 4, read-out: IC50 (nM) caspase-3
[7] = Table 4, read-out: IC50 (nM) caspase-7

T5 sequence (Q14790 217-374 limits assumed): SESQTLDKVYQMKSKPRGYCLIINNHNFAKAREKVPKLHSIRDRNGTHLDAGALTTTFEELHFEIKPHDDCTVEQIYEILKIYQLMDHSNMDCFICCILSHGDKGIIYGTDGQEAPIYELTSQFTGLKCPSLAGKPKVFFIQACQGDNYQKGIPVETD
T5 sequence (Q14790 385-479 limits assumed): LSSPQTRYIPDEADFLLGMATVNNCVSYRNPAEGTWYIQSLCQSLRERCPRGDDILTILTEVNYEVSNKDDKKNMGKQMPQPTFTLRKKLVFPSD

SMILES: COc1ccc(CN2C(=O)C(=C(C#N)C#N)c3cc(S(=O)(=O)N4CCCC4COc4cccnc4)ccc32)cc1 (stereo not drawn) [Compound 30d, 2-{1-(4-Methoxy-benzyl)-2-oxo-5-[2-(pyridin-3-yloxymethyl)-pyrrolidine-1-sulfonyl]-1,2-dihydro-indol-3-yl-idene}-malononitrile]
IC50 (caspase 1): 3900 nM
IC50 (caspase 1; IC50 (nM) Casp-1, Table 7): 3900 ± 530 nM
IC50 (caspase 1; read-out: IC50 for caspase-1): 2700 to 3200 nM
IC50 (caspase-3 [1]; IC50 (nM) Casp-3, Table 7): 7.8 ± 1.5 nM
IC50 (caspase-3 [1]; IC50 (nM) Caspase 3, Table 2): 7.8 ± 1.5 nM
IC50 (caspase-3 [1]; IC50 for caspase-3): 7.8 nM
IC50 (caspase 6): 610 ± 113 nM
IC50 (caspase 6; read-out: IC50 for caspase-6): 515 to 770 nM
IC50 (caspase 7; IC50 (nM) Casp-7, Table 7): 29.6 ± 1.4 nM
IC50 (caspase 7; IC50 (nM) Caspase 7, Table 2): 29.6 ± 1.4 nM
IC50 (caspase 7; read-out: IC50 for caspase-7): 15.1 nM
IC50 (caspase 8; Table 2, read-out: IC50 (nM) Caspase 8): > 50000 nM
IC50 (caspase 8; Table 7, read-out: IC50 (nM) Casp-8): > 50000 nM
IC50 (caspase 8; read-out: IC50 for caspase-8): > 50000 nM
caspase 3 activity after incubation with inhibitor (caspase-3 [2]; 3 μM, 1 hour on ice, before gel filtration): fully inhibited
recovered caspase-3 activity after gel filtration (caspase-3 [2]; elutant compared to untreated elutant A): full caspase 3 activity

IC50 (caspase 1; Table 6, read-out: IC50 (nM) caspase-1): > 10000 nM
IC50 (caspase-3 [1]; read-out: IC50 for caspase-3): 3.9 nM
IC50 (caspase 6; Table 6, read-out: IC50 (nM) caspase-6): > 5000 nM
IC50 (caspase 7; Table 6, read-out: IC50 (nM) caspase-7): 15.1 ± 1.2 nM
IC50 (caspase 8; Table 6, read-out: IC50 (nM) caspase-8): > 50000 nM
Ki (caspase-3 [3]; competitive versus Ac-DEVD-AMC, read-out: calculated Ki value): 4.4 nM
mechanism of inhibition of caspase-3 activity (caspase-3 [3]; versus Ac-DEVD-AMC): competitive inhibition
SMILES: COc1ccc(CN2C(=O)C(=O)c3cc(S(=O)(=O)N4CCCC4COc4cccnc4)ccc32)cc1 (stereo not drawn) [Compound 21c, 1-(4-Methoxybenzyl)-5-(2-(pyridin-3-yl-oxymethyl)-pyrrolidine-1-sulfonyl)-1H-indole-2,3-dione]

IC50 (caspase-3 [1]; [4]): 9.7 ± 1.6 nM
IC50 (caspase 7; [5]): 29.5 ± 4.9 nM
melting point: 157.1 to 158.9 °C
SMILES: O=C1C(=O)N(Cc2ccccc2)c2ccc(S(=O)(=O)N3CC[C@H]3COc3ccccc3)cc21 [Compound 18b, (S)-1-Benzyl-5-(2-phenoxymethyl-azetidine-1-sulfonyl)-1H-indole-2,3-dione]

IC50 (caspase-3 [1]; [4]): 8.4 ± 1.2 nM
IC50 (caspase 7; [5]): 23.2 ± 3 nM
melting point: 159.8 to 161.5 °C
SMILES: COc1ccc(CN2C(=O)C(=O)c3cc(S(=O)(=O)N4CC[C@H]4COc4ccccc4)ccc32)cc1 [Compound 18c, (S)-1-(4-Methoxybenzyl)-5-(2-phenoxymethyl-azetidine-1-sulfonyl)-1H-indole-2,3-dione]

IC50 (caspase-3 [1]; [4]): 11.3 ± 1.2 nM
IC50 (caspase 7; [5]): 26.7 ± 7.2 nM
melting point: 167.6 to 169.2 °C
SMILES: CSc1ccc(CN2C(=O)C(=O)c3cc(S(=O)(=O)N4CC[C@H]4COc4ccccc4)ccc32)cc1 [Compound 18d, (S)-1-(4-Methylthiobenzyl)-5-(2-phenoxymethyl-azetidine-1-sulfonyl)-1H-indole-2,3-dione]

IC50 (caspase-3 [1]; [4]): 8.8 ± 1.4 nM
IC50 (caspase 7; [5]): 21 ± 5.6 nM
melting point: 164.6 to 165.7 °C
SMILES: O=C1C(=O)N(Cc2ccc(F)cc2)c2ccc(S(=O)(=O)N3CC[C@H]3COc3ccccc3)cc21 [Compound 18e, (S)-1-(4-Fluorobenzyl)-5-(2-phenoxymethyl-azetidine-1-sulfonyl)-1H-indole-2,3-dione]

IC50 (caspase-3 [1]; [6]): 9.1 ± 1.8 nM
IC50 (caspase 7; [7]): 22.2 ± 4 nM
melting point: 128.6 to 129.4 °C
SMILES: O=C1C(=O)N(Cc2cccc(F)n2)c2ccc(S(=O)(=O)N3CCC[C@H]3COc3ccccc3)cc21 [Compound 11i, (S)-1-(6-Fluoro-pyridin-2-yl-methyl)-5-(2-phenoxymethyl-pyrrolidine-1-sulfonyl)-1H-indole-2,3-dione]

IC50 (caspase-3 [1]; [4]): 287 ± 24.7 nM
IC50 (caspase 7; [5]): 1350 ± 141 nM
fold less potent for inhibiting caspase-7 (caspase 7; relative to the corresponding pyrrolidine analogue 10): > 2 fold
melting point: 173.2 to 174.5 °C
SMILES: O=C1Nc2ccc(S(=O)(=O)N3CC[C@H]3COc3ccccc3)cc2C1=O [Compound 17, (S)-5-(2-Phenoxymethyl-azetidine-1-sulfonyl)-1H-indole-2,3-dione]

IC50 (caspase-3 [1]; [4]): 29.2 ± 5.2 nM
IC50 (caspase 7; [5]): 135 ± 7.1 nM
melting point: 159 to 159.9 °C
SMILES: O=C1C(=O)N(Cc2ccnc(F)c2)c2ccc(S(=O)(=O)N3CC[C@H]3COc3ccccc3)cc21 [Compound 18h, (S)-1-(2-Fluoropyridin-4-yl-methyl)-5-(2-phenoxymethylazetidine-1-sulfonyl)-1H-indole-2,3-dione]

IC50 (caspase-3 [1]; [6]): 21.3 ± 3.2 nM
IC50 (caspase 7; [7]): 58 ± 2.8 nM
melting point: 180.1 to 181.9 °C
SMILES: O=C1C(=O)N(Cc2ccnc(F)c2)c2ccc(S(=O)(=O)N3CCC[C@H]3COc3ccccc3)cc21 [Compound 11h, (S)-1-(2-Fluoro-pyridin-4-yl-methyl)-5-(2-phenoxymethyl-pyrrolidine-1-sulfonyl)-1H-indole-2,3-dione]

IC50 (caspase-3 [1]; [4]): 9.4 ± 0.3 nM
IC50 (caspase 7; [5]): 26 ± 5.2 nM
melting point: 147.1 to 148 °C
SMILES: O=C1C(=O)N(Cc2ccccc2F)c2ccc(S(=O)(=O)N3CC[C@H]3COc3ccccc3)cc21 [Compound 18f, (S)-1-(2-Fluorobenzyl)-5-(2-phenoxymethyl-azetidine-1-sulfonyl)-1H-indole-2,3-dione]

IC50 (caspase-3 [1]; [4]): 91.7 ± 7.6 nM
IC50 (caspase 7; [5]): 362.5 ± 3.5 nM
melting point: 173.5 to 174.9 °C
SMILES: CN1C(=O)C(=O)c2cc(S(=O)(=O)N3CC[C@H]3COc3ccccc3)ccc21 [Compound 18a, (S)-1-Methyl-5-(2-phenoxymethyl-azetidine-1-sulfonyl)-1H-indole-2,3-dione]
